Values joined by “and” are separate entries in the source; they are usually repeats but may differ in a detail not shown here. Equal values may be shown once.
System: BDF1 mice, Adenocarcinoma 755 s.c., tumor weight T/C
Assay: NCI In Vivo Anticancer Drug Screen. Data for tumor model Adenocarcinoma 755 (subcutaneous) in B6D2F1 (BDF1) mice
Settings: endpoint: mean tumor weight, schedule: Q01DX011 (ip), higher = larger tumour
Outline: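 In vivo antitumor screen on a transplantable tumor line. Result equals the measure in compound-treated animals divided by the same measure in vehicle controls.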

[1] = dose: 12.5 mg/kg/injection, vehicle: carboxymethylcellulose (CMC)
[2] = dose: 25.0 mg/kg/injection, vehicle: carboxymethylcellulose (CMC)
[3] = dose: 50.0 mg/kg/injection, vehicle: carboxymethylcellulose (CMC)
[4] = dose: 100.0 mg/kg/injection, vehicle: carboxymethylcellulose (CMC)
[5] = dose: 5.0 mg/kg/injection, vehicle: carboxymethylcellulose (CMC)
[6] = dose: 10.0 mg/kg/injection, vehicle: carboxymethylcellulose (CMC)
[7] = dose: 1.0 mg/kg/injection, vehicle: carboxymethylcellulose (CMC)
[8] = dose: 25.0 mg/kg/injection, vehicle: methylcellulose (MC)
[9] = dose: 50.0 mg/kg/injection, vehicle: methylcellulose (MC)
[10] = dose: 3.0 mg/kg/injection, vehicle: methylcellulose (MC)

CCC1CN1P(=O)(Oc1cccc2ccccc12)N1CC1CC (stereo unspecified)
T/C (dose: 88.0 mg/kg/injection, vehicle: carboxymethylcellulose (CMC)): 42 % of control
T/C (dose: 88.0 mg/kg/injection, vehicle: methylcellulose (MC)): 80 % of control
T/C (dose: 175.0 mg/kg/injection, vehicle: methylcellulose (MC)): 92 % of control
T/C (dose: 350.0 mg/kg/injection, vehicle: methylcellulose (MC)): 59 % of control

CCSc1nc(Cl)cc(Sc2nc(N)nc3nc[nH]c23)n1
T/C (dose: 2.5 mg/kg/injection, vehicle: methylcellulose (MC)): 84 % of control
T/C (dose: 5.0 mg/kg/injection, vehicle: methylcellulose (MC)): 65 % of control
T/C (dose: 10.0 mg/kg/injection, vehicle: methylcellulose (MC)): 80 % of control
T/C [1]: 82 % of control
T/C (dose: 15.0 mg/kg/injection, vehicle: methylcellulose (MC)): 40 % of control
T/C (dose: 18.0 mg/kg/injection, vehicle: methylcellulose (MC)): 6 % of control
T/C [2]: 69 % of control
T/C (dose: 36.0 mg/kg/injection, vehicle: methylcellulose (MC)): 20 % of control
T/C [3]: 24 % of control
T/C (dose: 72.0 mg/kg/injection, vehicle: methylcellulose (MC)): 16 % of control
T/C [4]: 1 % of control
T/C (dose: 144.0 mg/kg/injection, vehicle: methylcellulose (MC)): 15 % of control
T/C (dose: 200.0 mg/kg/injection, vehicle: carboxymethylcellulose (CMC)): 3 % of control

CN1CCC(OC(N)=O)CC1
T/C (dose: 44.0 mg/kg/injection, vehicle: carboxymethylcellulose (CMC)): 84 % of control
T/C (dose: 87.5 mg/kg/injection, vehicle: carboxymethylcellulose (CMC)): 96 % of control
T/C [4]: 70 % of control
T/C (dose: 155.0 mg/kg/injection, vehicle: carboxymethylcellulose (CMC)): 54 % of control
T/C (dose: 175.0 mg/kg/injection, vehicle: carboxymethylcellulose (CMC)): 65 % of control
T/C (dose: 230.0 mg/kg/injection, vehicle: carboxymethylcellulose (CMC)): 46 % of control
T/C (dose: 525.0 mg/kg/injection, vehicle: carboxymethylcellulose (CMC)): 43 % of control

COC12C(COC(N)=O)C3=C(C(=O)C(C)=C(N)C3=O)N1CC1C2N1C (stereo unspecified)
T/C (dose: 1.25 mg/kg/injection, vehicle: carboxymethylcellulose (CMC)): 62 % of control
T/C (dose: 2.5 mg/kg/injection, vehicle: carboxymethylcellulose (CMC)): 52 % of control
T/C [5]: 27 % of control
T/C [6]: 3 % of control and 7 % of control

O=C(NCCCCCCCCCCNC(=O)N1CC1)N1CC1
T/C (dose: 0.5 mg/kg/injection, vehicle: carboxymethylcellulose (CMC)): 57 % of control and 66 % of control
T/C [7]: 2 % of control and 20 % of control

CCOC(=O)c1cnc(SCc2ccccc2Cl)nc1N1CC1
T/C (dose: 8.0 mg/kg/injection, vehicle: carboxymethylcellulose (CMC)): 54 % of control
T/C (dose: 8.0 mg/kg/injection, vehicle: other): 110 % of control
T/C (dose: 16.0 mg/kg/injection, vehicle: carboxymethylcellulose (CMC)): 75 % of control
T/C (dose: 16.0 mg/kg/injection, vehicle: other): 70 % of control
T/C (dose: 28.0 mg/kg/injection, vehicle: carboxymethylcellulose (CMC)): 29 % of control
T/C (dose: 28.0 mg/kg/injection, vehicle: other): 62 % of control
T/C (dose: 56.0 mg/kg/injection, vehicle: carboxymethylcellulose (CMC)): 16 % of control
T/C (dose: 56.0 mg/kg/injection, vehicle: other): 22 % of control

Nc1nc(SCc2cccc([N+](=O)[O-])c2)c2[nH]cnc2n1
T/C (dose: 37.5 mg/kg/injection, vehicle: methylcellulose (MC)): 41 % of control
T/C (dose: 75.0 mg/kg/injection, vehicle: methylcellulose (MC)): 8 % of control
T/C (dose: 150.0 mg/kg/injection, vehicle: methylcellulose (MC)): 3 % of control
T/C (dose: 300.0 mg/kg/injection, vehicle: methylcellulose (MC)): 1 % of control

O=S=Nc1ccccc1
T/C (dose: 351.0 mg/kg/injection, vehicle: carboxymethylcellulose (CMC)): 64 % of control

CCCCn1cnc2c(SCc3ccc(Br)cc3)nc(N)nc21
T/C (dose: 12.5 mg/kg/injection, vehicle: methylcellulose (MC)): 47 % of control
T/C [8]: 66 % of control
T/C [9]: 82 % of control
T/C (dose: 100.0 mg/kg/injection, vehicle: methylcellulose (MC)): 49 % of control

C/C(=N\NC(=O)c1ccncc1)c1ccccc1Cl
T/C (dose: 30.0 mg/kg/injection, vehicle: methylcellulose (MC)): 56 % of control
T/C (dose: 60.0 mg/kg/injection, vehicle: methylcellulose (MC)): 61 % of control

[N-]=[N+]=C1C(=O)NC(=O)N2C3CC(O)C(COC12)O3 (stereo unspecified)
T/C (dose: 30.0 mg/kg/injection, vehicle: saline): 87 % of control
T/C (dose: 60.0 mg/kg/injection, vehicle: saline): 80 % of control
T/C (dose: 120.0 mg/kg/injection, vehicle: saline): 97 % of control
T/C (dose: 240.0 mg/kg/injection, vehicle: saline): 68 % of control
T/C (dose: 400.0 mg/kg/injection, vehicle: carboxymethylcellulose (CMC)): 40 % of control

CCOC(=O)C(Cc1ccc(N(CCCl)CCCl)cc1)NC=O (stereo unspecified)
T/C [5]: 75 % of control
T/C [6]: 43 % of control
T/C (dose: 20.0 mg/kg/injection, vehicle: carboxymethylcellulose (CMC)): 48 % of control
T/C (dose: 40.0 mg/kg/injection, vehicle: carboxymethylcellulose (CMC)): 3 % of control
T/C (dose: 80.0 mg/kg/injection, vehicle: carboxymethylcellulose (CMC)): 6 % of control

CCc1nc(N)nc(N)c1-c1ccc(Cl)cc1
T/C [10]: 52 % of control
T/C (dose: 6.0 mg/kg/injection, vehicle: methylcellulose (MC)): 38 % of control
T/C (dose: 6.25 mg/kg/injection, vehicle: carboxymethylcellulose (CMC)): 77 % of control
T/C (dose: 11.85 mg/kg/injection, vehicle: carboxymethylcellulose (CMC)): 82 % of control
T/C (dose: 12.0 mg/kg/injection, vehicle: methylcellulose (MC)): 49 % of control
T/C [1]: 99 % of control
T/C (dose: 23.7 mg/kg/injection, vehicle: carboxymethylcellulose (CMC)): 116 % of control
T/C [2]: 115 % of control
T/C [8]: 62 % of control
T/C (dose: 47.4 mg/kg/injection, vehicle: carboxymethylcellulose (CMC)): 105 % of control
T/C [3]: 72 % of control
T/C [9]: 71 % of control
T/C (dose: 62.5 mg/kg/injection, vehicle: methylcellulose (MC)): 43 % of control

Cn1cnc2c(Cl)nc(C(F)(F)F)nc21
T/C (dose: 30.0 mg/kg/injection, vehicle: carboxymethylcellulose (CMC)): 80 % of control

Cc1cnc(Cl)nc1Sc1nc(N)nc2nc[nH]c12
T/C (dose: 0.5 mg/kg/injection, vehicle: methylcellulose (MC)): 56 % of control
T/C (dose: 0.75 mg/kg/injection, vehicle: carboxymethylcellulose (CMC)): 31 % of control
T/C [7]: 31 % of control and 38 % of control
T/C (dose: 1.0 mg/kg/injection, vehicle: methylcellulose (MC)): 52 % of control
T/C (dose: 1.5 mg/kg/injection, vehicle: carboxymethylcellulose (CMC)): 11 % of control
T/C (dose: 3.0 mg/kg/injection, vehicle: carboxymethylcellulose (CMC)): 8 % of control and 11 % of control
T/C [10]: 35 % of control
T/C (dose: 6.0 mg/kg/injection, vehicle: carboxymethylcellulose (CMC)): 8 % of control

— PubChem BioAssay AID180 (DTP/NCI, 2004)
